Values of other authors as cited in US20220175741A1, “COMPOSITIONS, DEVICES AND METHODS FOR TREATING AUTISM” (priority 2017, published 2022).

What was measured:
children with Autism = details: within a few weeks of treatment; Sandler et al, Journal of Child Neurology 2000
[1] = test system: child's autistic symptoms; details: one child; Rodakis, Microbial Ecology in Health & Disease 2015

SMILES | behavioural changes of autistic children (children with Autism) | autistic symptoms [1]
CN[C@H](CC(C)C)C(=O)N[C@H]1C(=O)N[C@@H](CC(N)=O)C(=O)N[C@H]2C(=O)N[C@H]3C(=O)N[C@H](C(=O)N[C@H](C(=O)O)c4cc(O)cc(O)c4-c4cc3ccc4O)[C@H](O)c3ccc(c(Cl)c3)Oc3cc2cc(c3O[C@@H]2O[C@H](CO)[C@@H](O)[C@H](O)[C@H]2O[C@H]2C[C@](C)(N)[C@H](O)[C@H](C)O2)Oc2ccc(cc2Cl)[C@H]1O [vancomycin] | reversal of behavioural changes and progress to normality | 
CC1(C)S[C@@H]2[C@H](NC(=O)[C@H](N)c3ccc(O)cc3)C(=O)N2[C@H]1C(=O)O [amoxycillin] |  | reversed almost completely
